According to patent US10596172B2 (Celgene CAR LLC, priority 2008, dated 2020):
Where two headings read alike, the source gives them in different places.

Key:
EGFR-WT = EGFR-WT (Homo sapiens (Human), UniProt P00533); experiment: Omnia assay for potency assessment against EGFR (WT); assay type: biochemical; conditions: wild-type EGFR; read-out: EGFR Wild Type Inhibition
ITK = ITK (Homo sapiens (Human), UniProt Q08881); experiment: Omnia assay for potency assessment against active forms of ITK kinase; assay type: biochemical; conditions: [ITK]=10 nM, [ATP]=25 μM, [Y6-Sox]=10 μM; read-out: ITK Inhibition
Protocol: [ITK]=10 nM, [ATP]=25 μM, [Y6-Sox]=10 μM (ATP KMapp=33 μM).

BTK [1] = biological target: T1, BTK (Homo sapiens (Human), UniProt Q06187); experiment: Omnia assay for potency assessment against BTK; assay type: biochemical; conditions: [BTK]=5 nm; read-out: BTK Inhibition
Protocol: Omnia Assay Protocol for Potency Assessment Against BTK
The modified BTK-optimized reagent conditions for the above protocol are:
[BTK]=5 nm, [ATP]=40 mM, [Y5-Sox]=10 mM (ATP KMapp˜36 mM).

[2] = system: B cell lymphoma cell lines; experiment: B cell lymphoma proliferation assay; assay type: cell-based
BTK [3] = biological target: T1, BTK; experiment: Washout experiment with Ramos cells; assay type: cell-based; conditions: 100 nM compound 1 hour, then washout
Protocol: Ramos cells were serum starved for one hour in RPMI media +1% glutamine at 37° C. After starvation, Ramos cells were treated with 100 nM compound diluted in serum free RPMI media for 1 hour. After compound treatment, the media was removed and cells were washed with compound-free media. Subsequently, Ramos cells were washed every 2 hours and resuspended in fresh compound-free media. Cells were collected at specified timepoints, treated with 1 ug anti-human IgM (Southern Biotech cat #2022-01) for 10 minutes on ice to induce BCR signaling and then washed in PBS. Ramos cells were then lysed in Cell Extraction Buffer (Invitrogen FNN0011) supplemented with Roche complete protease inhibitor tablets (Roche 11697498001) and phosphatase inhibitors (Roche 04 906 837 001) and 18 ug total protein lysate was loaded in each lane. Inhibition of BTK kinase activity was assayed by measuring its substrate (PLCγ2) phosphorylation by western blot with phospho-specific antibodies from Cell Signaling Technologies cat #3871. The results of this experiment with compounds I-2, I-4 and I-7 are depicted in FIGS. 1, 2 and 3.

JAK3 = JAK3 (Homo sapiens (Human), UniProt P52333); experiment: Omnia assay for potency assessment against the active form of JAK3; assay type: biochemical; conditions: read-out: JAK3 Inhibition
TEC kinase = TEC kinase (Homo sapiens (Human), UniProt P42680); experiment: Mass spectrometry for TEC kinase (tryptic digest); assay type: binding; conditions: 3 hrs at 10x excess
Protocol: (§1) TEC kinase (45 pmols; Invitrogen) was incubated with (I-2) (450 pmols) for 3 hrs at 10× excess prior to tryptic digestion. Iodoacetamide was used as the alkylating agent after compound incubation. […] For tryptic digests a 5 ul aliquot (7.5 pmols) was diluted with 15 ul of 0.1% TFA prior to micro C18 Zip Tipping directly onto the MALDI target using alpha cyano-4-hydroxy cinnamic acid as the matrix (5 mg/ml in 0.1% TFA:Acetonitrile 50:50).
As depicted in FIG. 6, the expected peptide ([…]) to be modified was immediately evident after reaction with I-2 (MI mass of 359.17 Da) at MH+ of 1294.72. The peptide was also quite evident in the control sample as modified by Iodacetamide at MH+ of 992.56. […] There was no evidence of other modified peptides.
For tryptic digests the instrument was set in Reflectron mode with a pulsed extraction setting of 2200. Calibration was done using the Laser Biolabs Pep Mix standard ([…], 1296.69, 1672.92, 2093.09, 2465.20). For CID/PSD analysis the peptide was selected using cursors to set ion gate timing and fragmentation occurred at a laser power about 20% higher and He was used as the collision gas for CID. Calibration for fragments was done using the P14R fragmentation calibration for the Curved field Reflectron.
as §1, with “(I-4)” for “(I-2)”
As depicted in FIG. 7, the expected peptide ([…]) to be modified was immediately evident at MH+ of 1355.72. This is the mass to be expected when compound I-4, with an adduct mass of 420.21, is added to the peptide mass of 935.51. The peptide was also quite evident in the control sample as modified by Iodacetamide at MH^+ of 992.56. […] There was no evidence of other modified peptides. […]

BTK [4] = biological target: T1, BTK; experiment: BTK Ramos cellular assay (phosphorylation of BTK substrate PLCγ2); assay type: cell-based; conditions: Ramos cells, compound 1 hour, anti-human IgM stimulation, read-out: BTK Inhibition (BTK Ramos Cellular Inhibition Data)
Protocol: Ramos cells were grown in suspension in T225 flasks, spun down, resuspended in 50 ml serum-free media and incubated for 1 hour. […] Ramos cells were incubated with compound for 1 hour, washed again and resuspended in 100 ul serum-free media. Cells were then stimulated with 1 μg of goat F(ab′)2 Anti-Human IgM and incubated on ice for 10 minutes to activate B cell receptor signaling pathways. After 10 minutes, the cells were washed once with PBS and then lysed on ice with Invitrogen Cell Extraction buffer. 16 μg total protein from lysates were loaded on gel and blots were probed for phosphorylation of the BTK substrate PLCγ2.

Human naïve B cells = experiment: Human primary B cell proliferation assay; assay type: cell-based; conditions: 5 μg/ml α-IgM 72 hours, 3H-thymidine incorporation
Protocol: Human naïve B cells were purified from 100 mL whole blood using a MACS purification kit designed to isolate CD19+, IgD+ cells by negative selection. Purified naïve B cells were resuspended in RPMI complete and stimulated with 5 μg/ml α-IgM for 72 hours. ^3H-Thymidine was included in the culture media for the final 16 h, cells were harvested and ^3H incorporation measured. Inhibition of B cell proliferation correlates with inhibition of BTK substrate phosphorylation after α-IgM stimulation.

BTK [5] = biological target: BTK (Rattus norvegicus, UniProt Q5S255); experiment: BTK occupancy from in vivo samples by ELISA; conditions: po, rats dosed orally 30 mg/kg
Protocol: All samples were prepared with equal concentrations of Biorad lysis buffer (Hercules, Calif., USA), 0.5% bovine serum albumin in PBS with 0.05% Tween-20 to give a final concentration of 1 μM I-215. Samples were incubated in a mixing plate for 1 hr at room temperature while shaking to allow probe compound I-215 to bind to free BTK. After incubation with I-215, samples were added to a washed, streptavidin-coated ELISA plate (Pierce, Rockford, Ill., USA) and incubated for 1 hr at room temperature while shaking. The plate was then washed with PBS containing 0.05% Tween-20 using an automatic plate washer. Anti-BTK antibody was prepared at 1:1000 dilution in 0.5% BSA in PBS (0.05% Tween-20) and added to the ELISA plate. The plate was incubated for 1 hr at room temperature while shaking. The plate was washed as described above and the secondary HRP antibody was prepared at 1:5000 dilution in 0.5% BSA in PBS (0.05% Tween-20). The plate was incubated and washed as described above. TMB was added to the plate, and OD650 was monitored until reaching 1 OD unit. The reaction was then stopped with addition of H2SO4. The plate was analyzed using Gen 5 software, and a 4 Parameter Logistic curve was employed to quantitate samples. Recombinant BTK (Invitrogen, Carlsbad, Calif., USA) was used for the standard curve.
Rats were dosed orally with 30 mg/kg of compound and spleens were harvested either 2 or 24 hours after compound treatment. Rat spleens were disrupted between two microscope slides coated with frosted glass to recover single cell suspensions. Red blood cells were lysed by incubating with RBC lysis buffer (Boston BioProducts) for 2 minutes at room temperature, the cells were then resuspended in RPMI complete media and pelleted by centrifugation. Rat B cells were isolated by positive selection with B220+ antibody-magnetic bead conjugates, purified by MACS column and lysed in Bio-Rad lysis buffer at a concentration of 10 million cells/100 μl. Lysates were analyzed employing the biotinylated probe compound I-215 in an ELISA protocol as described in detail in Example 278.

[6] = Homo sapiens, DOHH-2, DOHH2 B cell lymphoma cell line, read-out: EC50 (μM) DOHH2

T1 sequence (Q06187 whole entry): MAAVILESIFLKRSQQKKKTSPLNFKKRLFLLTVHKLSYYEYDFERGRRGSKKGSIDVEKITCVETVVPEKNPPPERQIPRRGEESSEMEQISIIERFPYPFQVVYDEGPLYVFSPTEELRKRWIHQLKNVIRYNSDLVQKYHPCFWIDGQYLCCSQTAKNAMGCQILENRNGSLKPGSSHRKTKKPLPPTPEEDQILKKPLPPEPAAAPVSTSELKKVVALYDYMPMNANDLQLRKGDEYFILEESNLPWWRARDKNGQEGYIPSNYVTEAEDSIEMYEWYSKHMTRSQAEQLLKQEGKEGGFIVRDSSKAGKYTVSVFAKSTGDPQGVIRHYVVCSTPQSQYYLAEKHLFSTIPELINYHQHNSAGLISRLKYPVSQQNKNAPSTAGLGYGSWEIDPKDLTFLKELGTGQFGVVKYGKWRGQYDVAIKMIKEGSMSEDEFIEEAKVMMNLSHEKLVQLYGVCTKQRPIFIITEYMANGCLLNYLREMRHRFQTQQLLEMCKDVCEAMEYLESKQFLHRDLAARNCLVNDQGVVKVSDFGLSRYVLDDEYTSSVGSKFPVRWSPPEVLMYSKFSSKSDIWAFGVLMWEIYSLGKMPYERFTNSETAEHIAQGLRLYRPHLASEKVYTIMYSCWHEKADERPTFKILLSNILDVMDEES
Sequence of ITK (Q08881 whole entry): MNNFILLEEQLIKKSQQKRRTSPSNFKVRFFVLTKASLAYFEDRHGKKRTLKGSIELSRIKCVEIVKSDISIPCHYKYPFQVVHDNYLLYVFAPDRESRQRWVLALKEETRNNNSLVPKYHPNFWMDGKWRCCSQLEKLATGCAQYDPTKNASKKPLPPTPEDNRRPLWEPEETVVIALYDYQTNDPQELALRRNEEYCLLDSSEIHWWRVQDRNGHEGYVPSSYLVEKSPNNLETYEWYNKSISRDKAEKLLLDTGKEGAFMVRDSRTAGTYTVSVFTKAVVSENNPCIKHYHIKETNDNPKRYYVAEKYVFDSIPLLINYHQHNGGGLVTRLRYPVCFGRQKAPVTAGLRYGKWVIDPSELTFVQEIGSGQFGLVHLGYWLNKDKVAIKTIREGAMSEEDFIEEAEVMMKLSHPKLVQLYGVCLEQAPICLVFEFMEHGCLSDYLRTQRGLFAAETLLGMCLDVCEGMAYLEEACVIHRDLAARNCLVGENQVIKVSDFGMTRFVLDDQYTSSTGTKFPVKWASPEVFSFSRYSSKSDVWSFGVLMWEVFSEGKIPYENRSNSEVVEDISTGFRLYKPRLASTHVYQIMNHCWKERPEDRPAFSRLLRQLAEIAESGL
Sequence of BTK (Rattus norvegicus, UniProt Q5S255) (Q5S255 1-660): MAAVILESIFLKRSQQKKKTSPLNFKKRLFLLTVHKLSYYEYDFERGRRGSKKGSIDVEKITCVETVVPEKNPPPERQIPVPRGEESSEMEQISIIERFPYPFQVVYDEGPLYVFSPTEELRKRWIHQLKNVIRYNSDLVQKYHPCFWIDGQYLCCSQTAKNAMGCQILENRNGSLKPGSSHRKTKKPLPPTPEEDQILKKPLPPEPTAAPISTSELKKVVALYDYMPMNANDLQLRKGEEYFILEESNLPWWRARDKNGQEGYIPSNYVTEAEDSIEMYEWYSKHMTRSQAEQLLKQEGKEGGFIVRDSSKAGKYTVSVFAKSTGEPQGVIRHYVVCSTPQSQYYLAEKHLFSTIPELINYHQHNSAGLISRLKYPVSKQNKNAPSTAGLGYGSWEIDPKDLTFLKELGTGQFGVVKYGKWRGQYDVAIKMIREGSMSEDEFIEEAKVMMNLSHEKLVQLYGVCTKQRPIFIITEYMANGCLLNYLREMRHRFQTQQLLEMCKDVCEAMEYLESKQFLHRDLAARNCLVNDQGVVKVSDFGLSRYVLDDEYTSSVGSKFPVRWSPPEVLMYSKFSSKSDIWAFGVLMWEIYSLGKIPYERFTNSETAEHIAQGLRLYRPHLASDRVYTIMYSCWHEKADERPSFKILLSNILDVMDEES
Sequence of JAK3 (P52333 whole entry): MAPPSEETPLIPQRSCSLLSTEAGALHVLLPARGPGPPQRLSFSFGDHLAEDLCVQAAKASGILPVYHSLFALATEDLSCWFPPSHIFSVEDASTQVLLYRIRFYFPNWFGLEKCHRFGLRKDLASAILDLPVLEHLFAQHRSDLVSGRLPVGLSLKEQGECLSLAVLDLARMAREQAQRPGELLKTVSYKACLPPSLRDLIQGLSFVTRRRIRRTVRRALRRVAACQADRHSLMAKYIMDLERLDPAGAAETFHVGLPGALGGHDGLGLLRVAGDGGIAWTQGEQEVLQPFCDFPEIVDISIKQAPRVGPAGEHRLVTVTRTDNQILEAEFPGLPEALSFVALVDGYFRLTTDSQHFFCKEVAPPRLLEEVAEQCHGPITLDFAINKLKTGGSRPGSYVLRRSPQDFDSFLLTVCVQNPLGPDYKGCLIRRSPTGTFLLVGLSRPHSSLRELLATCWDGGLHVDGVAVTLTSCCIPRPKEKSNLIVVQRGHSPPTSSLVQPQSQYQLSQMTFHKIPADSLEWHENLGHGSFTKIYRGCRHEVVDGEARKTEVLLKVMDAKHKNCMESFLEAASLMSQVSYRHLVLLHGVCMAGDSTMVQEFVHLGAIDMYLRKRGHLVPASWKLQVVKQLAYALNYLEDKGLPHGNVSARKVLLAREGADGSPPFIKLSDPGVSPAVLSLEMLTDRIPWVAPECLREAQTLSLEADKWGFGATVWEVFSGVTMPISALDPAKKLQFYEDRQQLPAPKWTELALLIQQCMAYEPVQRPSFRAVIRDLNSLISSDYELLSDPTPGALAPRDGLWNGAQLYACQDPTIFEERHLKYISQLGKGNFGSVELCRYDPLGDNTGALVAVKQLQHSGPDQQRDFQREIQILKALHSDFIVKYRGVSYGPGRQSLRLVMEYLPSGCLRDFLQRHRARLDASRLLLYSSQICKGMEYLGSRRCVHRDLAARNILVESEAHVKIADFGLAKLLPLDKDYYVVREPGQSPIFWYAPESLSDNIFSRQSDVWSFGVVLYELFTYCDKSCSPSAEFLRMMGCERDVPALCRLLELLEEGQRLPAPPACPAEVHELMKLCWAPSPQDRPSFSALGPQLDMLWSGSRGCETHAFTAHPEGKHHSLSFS
Sequence of TEC kinase (P42680 whole entry): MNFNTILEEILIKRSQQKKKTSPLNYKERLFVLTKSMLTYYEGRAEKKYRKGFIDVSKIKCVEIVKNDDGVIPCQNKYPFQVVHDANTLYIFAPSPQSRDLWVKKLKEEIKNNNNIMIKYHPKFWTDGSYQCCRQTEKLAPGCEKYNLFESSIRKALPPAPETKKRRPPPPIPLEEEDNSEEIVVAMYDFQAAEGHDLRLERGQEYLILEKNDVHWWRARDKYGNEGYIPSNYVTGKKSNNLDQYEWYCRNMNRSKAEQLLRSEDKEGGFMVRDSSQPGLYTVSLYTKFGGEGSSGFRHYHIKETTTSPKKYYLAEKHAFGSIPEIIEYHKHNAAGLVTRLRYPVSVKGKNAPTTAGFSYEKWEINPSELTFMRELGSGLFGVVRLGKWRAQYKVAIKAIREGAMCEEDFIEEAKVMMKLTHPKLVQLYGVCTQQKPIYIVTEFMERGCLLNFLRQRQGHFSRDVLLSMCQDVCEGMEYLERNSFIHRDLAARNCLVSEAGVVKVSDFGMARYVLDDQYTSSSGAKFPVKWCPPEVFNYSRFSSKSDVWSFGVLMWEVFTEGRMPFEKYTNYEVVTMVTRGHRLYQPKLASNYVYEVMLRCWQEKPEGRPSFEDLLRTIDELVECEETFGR

Compound | IC50 (EGFR-WT) [nM] | IC50 (ITK) [nM] | IC50 (BTK [1]) [nM] | EC50 [2, 6] [µM] | IC50 (BTK [4]) [nM] | other results
C=CC(=O)Nc1cccc(Nc2ncc(C)c(Nc3cccc(C)c3)n2)c1 [Compound I-2, N-(3-(5-methyl-4-(m-tolylamino)pyrimidin-2-ylamino)phenyl)acrylamide] | – | – | – | 0.1 to 1 | – | BTK Inhibition Type (BTK [3]): irreversible; IC50 (JAK3): < 10 nM; covalent modification of TEC kinase peptide GCLLNFLR (Cys449) by mass spectrometry (TEC kinase): reaction was complete
C=CC(=O)Nc1cccc(Oc2nc(Nc3cccc(OC)c3)ncc2C(=O)NC2CC2)c1 [Compound I-177, 4-(3-acrylamidophenoxy)-2-(3-methoxyphenylamino)-pyrimidine-5-carboxylic Acid Cyclopropylamide] | < 10 | 10 to 100 | < 10 | – | 100 to 1000 | –
C=CC(=O)Nc1cccc(Oc2nc(Nc3cccc(OC)c3)ncc2C(N)=O)c1 [Compound I-178, 4-(3-acrylamidophenoxy)-2-(3-methoxyphenylamino)pyrimidine-5-carboxylic Acid Amide] | < 10 | 10 to 100 | < 10 | 1 to 10 | 10 to 100 | EC50 ([2]; DHL4 B cell lymphoma cell line, read-out: EC50 (μM) DHL4): > 10 µM; EC50 ([2]; Homo sapiens, WSUDLCL2, WSU-DLCL2 B cell lymphoma cell line, read-out: EC50 (μM) WSU-DLCL2): > 10 µM
C=CC(=O)N1CCC[C@@H](Oc2nc(Nc3ccc(OC)nc3)ncc2F)C1 [Compound I-180, (R)-1-(3-(5-fluoro-2-(6-methoxypyridin-3-ylamino)pyrimidin-4-yloxy)piperidin-1-yl)prop-2-en-1-one] | 100 to 1000 | 100 to 1000 | < 10 | – | 100 to 1000 | –

More lines, main results first:

IC50 (EGFR-WT) [nM] | IC50 (ITK) [nM] | IC50 (BTK [1]) [nM] | EC50 [2, 6] [µM] | IC50 (BTK [4]) [nM] | Compound | other results
< 10 | > 10000 | < 10 | – | – | 4-(3-acrylamidophenoxy)-2-(3-methoxyphenylamino)-pyrimidine-5-carboxylic acid phenylamide [Compound I-200] | –
– | – | – | > 10 | – | C=CC(=O)N1CCC[C@@H](Oc2nc(Nc3cccc(OC)c3)ncc2F)C1 [Compound I-190, (R)-1-(3-(5-fluoro-2-(3-methoxyphenylamino)pyrimidin-4-yloxy)piperidin-1-yl)prop-2-en-1-one] | EC50 (Human naïve B cells): 10 to 100 nM; receptor occupancy at 30 mg/kg (BTK [5]; spleen B cells harvested 2 hours after treatment, read-out: % BTK Occupancy 2 h): 18%; receptor occupancy at 30 mg/kg (BTK [5]; spleen B cells harvested 24 hours after treatment, read-out: % BTK Occupancy 24 h): 13%
